Data on 19 compounds can be found in US20210009542A1 (Calico Life Sciences LLC, priority 2018, published 2021).

pIC50: −log10 of the molar value. Read-outs that look alike come from different tables or passages of the source. Bounds are passed on as bounds.

For assay [1], the system named is B16F10 mouse melanoma cells. Put plainly: B16F10 IFNγ-induced cellular growth inhibition assay. The class given is cell-based. The settings on record: Mus musculus, B16-F10, 33 μM compound. The method, then: B16F10 mouse melanoma cells (ATCC Cat ^#CRL-6475, Manassas, Va.) were seeded at a density of 500 cells per well in a 384-well clear bottom plate (Corning Cat^# 3765, Corning, N.Y.) in 25 μL total volume of DMEM+10% FBS (Sigma Cat ^#D6429 and Sigma Cat ^#F4135, St. Louis, Mo.). Cells were allowed to adhere overnight at 37° C.+5% CO2. On the following day, 12.5 μL of mouse IFNγ (RD systems Cat485-MI/CF, Minneapolis, Minn.) was added to half of the plate (columns 13-24) at a concentration of 2 ng/mL for a final assay concentration of 0.5 ng/mL of IFNγ. Media only (12.5 μL of DMEM+10% FBS) was added to the remainder of the plate (columns 1-12). Next, compounds resuspended in DMSO (Sigma Cat ^#D2650) at 100 mM were diluted in semi-log dilutions in DMSO ranging from 100 mM to 0.001 mM and DMSO only controls were included. The compound/DMSO dilutions were further diluted 1:250 in DMEM+10% FBS, and 12.5 μL of these dilutions were added in triplicates to cells of both treatment arms (with and without IFNγ). Final compound concentrations ranged from 100 μM to 0.001 μM with a final DMSO concentration of 0.1%. Compounds were only dosed in the inner 240 wells, avoiding the outer 2-well perimeter of the plate to minimize edge effects. Finally, the plate was loaded into an IncuCyte® S3 Live Cell Analysis System (Essen Bioscience-Sartorius, Ann Arbor, Mich.) maintained in a 37° C.+5% CO2 incubator, allowed to equilibrate for 2 hours, and imaged every 6 hours for 5 days. Confluence over time for compound dilutions in the presence and absence of IFNγ was measured. Growth inhibition values were obtained when the “DMSO/no IFNγ” control reached confluence >95%. At these time points, the percent growth inhibition of each compound at the indicated concentration was calculated relative to the “DMSO/with IFNγ” control.

Assay [2] has as its target T1, His tagged PTPN2 (TC45) protein (Homo sapiens, UniProt P17706).
T1 construct: made in house
T1 sequence (P17706 with tags, fused parts or gaps isoform P17706-2): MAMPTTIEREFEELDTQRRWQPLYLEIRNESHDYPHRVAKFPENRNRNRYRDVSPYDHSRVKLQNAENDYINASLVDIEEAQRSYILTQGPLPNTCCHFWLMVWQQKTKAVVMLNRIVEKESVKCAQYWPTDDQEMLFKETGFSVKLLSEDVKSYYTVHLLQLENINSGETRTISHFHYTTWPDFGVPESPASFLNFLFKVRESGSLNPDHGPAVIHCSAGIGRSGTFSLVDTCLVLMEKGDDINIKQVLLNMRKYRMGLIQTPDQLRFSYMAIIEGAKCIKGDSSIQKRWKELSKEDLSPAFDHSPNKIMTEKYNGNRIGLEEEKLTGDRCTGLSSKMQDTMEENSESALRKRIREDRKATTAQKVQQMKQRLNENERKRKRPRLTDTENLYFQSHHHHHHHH
Put plainly: Mobility shift assay (MSA) for potency of PTPN2 inhibitors. Type of assay: biochemical. The following applies: read-out: PTPN2 MSA IC50. The method, boiled down:
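IC50 values were derived from % inhibition of substrate conversion, measured by microfluidic mobility shift (ex 488/em 530) after quenching. The fluorescent phosphotyrosine insulin-receptor peptide ([…]) reacted for 10 min at room temperature with 0.5 nM His-tagged TC45 PTPN2 that had been preincubated 10 min with compound (12 points, 1:3). Buffer was HEPES pH 7.5 with EGTA, EDTA, Tween 20 and DTT.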

[3] abbreviates: +0.5 ng/mL IFNγ, relative to DMSO control, read-out: % B16F10 growth inhibition (+0.5 ng/mL IFNγ) @ 33 μM.
Setting [4] is: no IFNγ, read-out: % B16F10 growth inhibition (no IFNγ) @ 33 μM.

In the case of `O=C1CN(c2c(O)cc3ccc(OCCN4CCC4)cc3c2F)S(=O)(=O)N1` [Compound 105, 5-{7-[2-(azetidin-1-yl)ethoxy]-1-fluoro-3-hydroxynaphthalen-2-yl}-1λ^6,2,5-thiadiazolidine-1,1,3-trione], the inhibition at 33 µM in assay [1] (setting [3]) is 60 to 90%; in assay [1] (setting [4]) it was under 25%. Moreover, the negative-log IC50 (pIC50) in assay [2] is 8.00 to 9.00.
As to `O=C1CN(c2c(O)cc3ccc(CC4CCN(CC(F)(F)F)CC4)cc3c2F)S(=O)(=O)N1` [Compound 252, 5-(1-fluoro-3-hydroxy-7-{[1-(2,2,2-trifluoroethyl)piperidin-4-yl]methyl}naphthalen-2-yl)-1λ^6,2,5-thiadiazolidine-1,1,3-trione], the figures for the inhibition at 33 µM in assay [1] (setting [3]) and in assay [1] (setting [4]) were 25 to 59% and under 25%, respectively. The negative-log IC50 (pIC50) in assay [2] is 8.00 to 9.00.
In the case of `O=C1CN(c2c(O)cc3ccc(C4CN(S(=O)(=O)C5CC5)C4)cc3c2F)S(=O)(=O)N1` [Compound 206, 5-{7-[1-(cyclopropanesulfonyl)azetidin-3-yl]-1-fluoro-3-hydroxynaphthalen-2-yl}-1λ^6,2,5-thiadiazolidine-1,1,3-trione], the results for the inhibition at 33 µM in assay [1] (setting [3]) and in assay [1] (setting [4]) were 60 to 90% and under 25%, respectively. The pIC50 in assay [2] is 8.00 to 9.00.
Consider `CP(C)(=O)c1ccc(-c2ccc3cc(O)c(N4CC(=O)NS4(=O)=O)c(F)c3c2)s1` [Compound 141, 5-{7-[5-(dimethylphosphoryl)thiophen-2-yl]-1-fluoro-3-hydroxynaphthalen-2-yl}-1λ^6,2,5-thiadiazolidine-1,1,3-trione], for which the inhibition at 33 µM in assay [1] (setting [3]) is 60 to 90%; in assay [1] (setting [4]), under 25%. In assay [2], the pIC50 is over 9.00.
For `CC(C)CCOc1ccc2cc(O)c(N3CC(=O)NS3(=O)=O)c(F)c2c1` [Compound 204, 5-[1-fluoro-3-hydroxy-7-(3-methylbutoxy)naphthalen-2-yl]-1λ^6,2,5-thiadiazolidine-1,1,3-trione], the inhibition at 33 µM in assay [1] (setting [3]) was 60 to 90%; in assay [1] (setting [4]) it was under 25%. In addition, the pIC50 in assay [2] was over 9.00.
`N#CCOc1ccc2cc(O)c(N3CC(=O)NS3(=O)=O)c(F)c2c1` [Compound 203, {[8-fluoro-6-hydroxy-7-(1,1,4-trioxo-1λ^6,2,5-thiadiazolidin-2-yl)naphthalen-2-yl]oxy}acetonitrile]: the inhibition at 33 µM was 60 to 90% in assay [1] (setting [3]) and under 25% in assay [1] (setting [4]). The negative-log IC50 (pIC50) in assay [2] is 8.00 to 9.00.
For `O=C1CN(c2c(O)cc3ccc(-c4cnn(S(=O)(=O)C5CC5)c4)cc3c2F)S(=O)(=O)N1` [Compound 303, 5-{7-[1-(cyclopropanesulfonyl)-1H-pyrazol-4-yl]-1-fluoro-3-hydroxynaphthalen-2-yl}-1λ^6,2,5-thiadiazolidine-1,1,3-trione], the inhibition at 33 µM is 60 to 90% in assay [1] (setting [3]) and under 25% in assay [1] (setting [4]). In addition, the pIC50 in assay [2] is over 9.00.
On to `CS(=O)(=O)N1CC(Nc2ccc3cc(O)c(N4CC(=O)NS4(=O)=O)c(F)c3c2)C1` [Compound 128, 5-(1-fluoro-3-hydroxy-7-{[1-(methanesulfonyl)azetidin-3-yl]amino}naphthalen-2-yl)-1λ^6,2,5-thiadiazolidine-1,1,3-trione], for which the inhibition at 33 µM was over 90% in assay [1] (setting [3]) and under 25% in assay [1] (setting [4]). Besides, in assay [2], the pIC50 was 8.00 to 9.00.
For the compound `O=C1CN(c2c(O)cc3ccc(NCCC4CC4)cc3c2F)S(=O)(=O)N1` [Compound 224, 5-{7-[(2-cyclopropylethyl)amino]-1-fluoro-3-hydroxynaphthalen-2-yl}-1λ^6,2,5-thiadiazolidine-1,1,3-trione], the inhibition at 33 µM was over 90% in assay [1] (setting [3]) and under 25% in assay [1] (setting [4]). Moreover, in assay [2], the pIC50 was 8.00 to 9.00.
The like results for `O=C(COc1ccc2cc(O)c(N3CC(=O)NS3(=O)=O)c(F)c2c1)NCCC1CC1` [Compound 281, N-(2-cyclopropylethyl)-2-{[8-fluoro-6-hydroxy-7-(1,1,4-trioxo-1λ^6,2,5-thiadiazolidin-2-yl)naphthalen-2-yl]oxy}acetamide] were, in that order, 25 to 59%, under 25% and 8.00 to 9.00.
The like results for `O=C1CN(c2c(O)cc3ccc(C4CCS(=O)(=O)CC4)cc3c2F)S(=O)(=O)N1` [Compound 248, 5-[7-(1,1-dioxo-1λ^6-thian-4-yl)-1-fluoro-3-hydroxynaphthalen-2-yl]-1λ^6,2,5-thiadiazolidine-1,1,3-trione] were, in that order, 60 to 90%, under 25% and 8.00 to 9.00.
Take `COCCOc1ccc2cc(O)c(N3CC(=O)NS3(=O)=O)c(F)c2c1` [Compound 119, 5-[1-fluoro-3-hydroxy-7-(2-methoxyethoxy)naphthalen-2-yl]-1λ^6,2,5-thiadiazolidine-1,1,3-trione]: the inhibition at 33 µM in assay [1] (setting [3]) is 60 to 90%; in assay [1] (setting [4]) it was under 25%. In addition, the pIC50 in assay [2] was 8.00 to 9.00.
In the same order, the values of `CCN(CC)C(=O)COc1ccc2cc(O)c(N3CC(=O)NS3(=O)=O)c(F)c2c1` [Compound 282, N,N-diethyl-2-{[8-fluoro-6-hydroxy-7-(1,1,4-trioxo-1λ^6,2,5-thiadiazolidin-2-yl)naphthalen-2-yl]oxy}acetamide] are 25 to 59%, under 25% and 8.00 to 9.00.
Turning to `CCS(=O)(=O)N1CC=C(c2ccc3cc(O)c(N4CC(=O)NS4(=O)=O)c(F)c3c2)C1` [Compound 295, 5-{7-[1-(ethanesulfonyl)-2,5-dihydro-1H-pyrrol-3-yl]-1-fluoro-3-hydroxynaphthalen-2-yl}-1λ^6,2,5-thiadiazolidine-1,1,3-trione], the inhibition at 33 µM is over 90% in assay [1] (setting [3]) and under 25% in assay [1] (setting [4]). Besides, the pIC50 in assay [2] was over 9.00.
In the case of `O=C1CN(c2c(O)cc3ccc(-c4cnn(CC5CC5)c4)cc3c2F)S(=O)(=O)N1` [Compound 132, 5-{7-[1-(cyclopropylmethyl)-1H-pyrazol-4-yl]-1-fluoro-3-hydroxynaphthalen-2-yl}-1λ^6,2,5-thiadiazolidine-1,1,3-trione], the inhibition at 33 µM in assay [1] (setting [3]) was 60 to 90%; in assay [1] (setting [4]), under 25%. Further, the negative logarithm of the IC50 (pIC50) in assay [2] was over 9.00.
In the case of `CCOc1ccc2cc(O)c(N3CC(=O)NS3(=O)=O)c(F)c2c1` [Compound 301, 5-(7-ethoxy-1-fluoro-3-hydroxynaphthalen-2-yl)-1λ^6,2,5-thiadiazolidine-1,1,3-trione], the inhibition at 33 µM in assay [1] (setting [3]) is 60 to 90%; in assay [1] (setting [4]) it was under 25%. Further, the pIC50 in assay [2] was 8.00 to 9.00.
Regarding `O=C1CN(c2c(O)cc3ccc(NCCNS(=O)(=O)C4CC4)cc3c2F)S(=O)(=O)N1` [Compound 125, N-(2-{[8-fluoro-6-hydroxy-7-(1,1,4-trioxo-1λ^6,2,5-thiadiazolidin-2-yl)naphthalen-2-yl]amino}ethyl)cyclopropanesulfonamide], the inhibition at 33 µM was 60 to 90% in assay [1] (setting [3]) and under 25% in assay [1] (setting [4]). Further, in assay [2], the negative-log IC50 (pIC50) is 8.00 to 9.00.
On to `COC/C=C/c1ccc2cc(O)c(N3CC(=O)NS3(=O)=O)c(F)c2c1` [Compound 245, 5-{1-fluoro-3-hydroxy-7-[(1E)-3-methoxyprop-1-en-1-yl]naphthalen-2-yl}-1λ^6,2,5-thiadiazolidine-1,1,3-trione], for which the values for the inhibition at 33 µM in assay [1] (setting [3]) and in assay [1] (setting [4]) were 60 to 90% and under 25%, respectively. Moreover, the negative-log IC50 (pIC50) in assay [2] was 8.00 to 9.00.
Regarding `CC(C)(N)CCOc1ccc2cc(O)c(N3CC(=O)NS3(=O)=O)c(F)c2c1` [Compound 165, 5-[7-(3-amino-3-methylbutoxy)-1-fluoro-3-hydroxynaphthalen-2-yl]-1λ^6,2,5-thiadiazolidine-1,1,3-trione], the inhibition at 33 µM in assay [1] (setting [3]) is over 90%; in assay [1] (setting [4]) it was under 25%. For the same compound, the pIC50 in assay [2] was 8.00 to 9.00.
